# Results taken from patent US9497960B2, “Biocide compositions comprising alkoxylation products of isoamyl alcohol derivatives” (COGNIS IP MANAGEMENT GMBH, priority 2010, dated 2016).
# How the values were obtained:
# [1] = system: barley powdery mildew (Blumeria graminis f. sp. hordei); assay: Curative greenhouse trial with Opus against barley powdery mildew; assay type: in vivo, Blumeria graminis f. sp. hordei on barley; details: for Infection rate of barley powdery mildew after treatment with fungicides, Opus: curative, Opus 10 g/ha, adjuvant 50 ml/ha, inoculation 2 days prior to application, assessment 14 DAT, barley leaf segments; for Sum of infection rates: sum of Opus (curative) and Amistar (protective) trials
# Description: Opus SC125 (BASF) was tested to control barley powdery mildew (BPM) in a curative greenhouse trial, Azoxystrobin SC 250 in a protective trial. In each case, barley was cultivated in a substrate “Frustorder Erde” for three weeks. Each treatment was replicated 14 times. The adjuvant dose rate in each treatment was 50 ml/ha. Inoculation of the leaves with powdery mildew (Blumeria graminis f. sp. hordei) was done 2 days prior to application to test Opus' curative action. From the stem, leaf segments were cut off with a length of 10 cm using the flag leaf (F) and 2nd leaf (F-1). Altogether, the leaves of each were placed on benzimidazol agar i.e. 0.5% Agar with 40 ppm benzimidazol. The concentration of Opus for the leaf application was 10 g/ha. Assessment 14 days after treatment (14 DAT) of the efficacy against powdery mildew was done by counting the mildew pustules per leaf on a length of 7 cm. The assessment of the infection rate was conducted by a trained biologist.
# [2] = system: barley powdery mildew (BPM); assay: Protective trial with Amistar (Azoxystrobin SC 250) against barley powdery mildew; assay type: in vivo, Blumeria graminis f. sp. hordei on barley; details: 5 g/ha azoxystrobin, adjuvant 50 ml/ha, leaves cut 5 h after application, incubation 10 d
# Description: Opus SC125 (BASF) was tested to control barley powdery mildew (BPM) in a curative greenhouse trial, Azoxystrobin SC 250 in a protective trial. In each case, barley was cultivated in a substrate “Frustorder Erde” for three weeks. Each treatment was replicated 14 times. The adjuvant dose rate in each treatment was 50 ml/ha. 5 h after application with the equivalent of 5 g/ha azoxystrobin, leaf segments were cut off at a length of 7 cm from the stem. The leaves of the F and F-1 leaf were placed on agar. After the inoculation, the incubation time was 10 d. The assessment of the infection rate was conducted by a trained biologist.
# [3] = Foam potential / foam height of aqueous adjuvant solutions; assay type: physicochemical; details: 0.1% aqueous solution/dispersion; Cipac MT 47, Cipac water D
# Description: (§1) Definition of “quasistatic”: Static or equilibrium surface tension at an air-liquid interface can be determined by the Du Noüy ring method, the Wilhelmy plate etc. […] To avoid such problems, a dynamic method is used but the frequency is reduced to 0.1 Hz or less, thus close enough to equilibrium conditions. Dynamic surface tension is determined at a frequency of 10 Hz. It was determined at 20° C. with the Krüss Bubble Pressure Tensiometer BP2, available from Krüss GmbH, Borsteler Chaussee 85-99, 22453 Hamburg, Germany. Foam potential was tested with SITA foam tester R-2000, available from SITA Messtechnik GmbH, Gostritzer Str. 61-63, 01217 Dresden, Germany. The results are compiled in Tables 1 and 2
# [4] = Dynamic and quasistatic surface tension, Krüss Bubble Pressure Tensiometer BP2; assay type: physicochemical; details: 0.1% in demineralised water, Kruess BP 2, 20° C.; for Surface tension at 10 Hz: dynamic; for Surface tension at 0.1 Hz: quasistatic
# Description: as §1
Molecule,"Infection rate of barley powdery mildew after treatment with fungicides, Opus [1] [%]",Sum of infection rates [1] [%],"Infection rate of barley powdery mildew after treatment with fungicides, Amistar [2] [%]",Foam hight after 1 m [3] [mL],Foam hight after 5 m [3] [mL],Surface tension at 10 Hz [4] [mN/m],Surface tension at 0.1 Hz [4] [mN/m]
"CC(C)CCC(COCCOCCOCCOCCOCCOCCOCCOCCOCCOCCO)C(C)C (centres unmarked) [Example 3, Isoamylguerbet + 10EO]",7,12,5,3,2,46,36
"CC(C)CCC(COCCOCCOCCOCCOCCO)C(C)C (centres unmarked) [Example 4, Isoamylguerbet + 5EO]",12,15,3,0,0,39,30
"CC(C)CCC(COCCOCCOCCO)C(C)C (centres unmarked) [Example 5, Isoamylguerbet + 3EO]",20,24,4,0,0,42,30
Isoamylguerbet + 3EO + 3PO [Example 2],8,8,0,0,0,45,32
Isoamylguerbet + 3PO + 3EO [Example 1],3,3,0,1,0,45,28
